# Where two headings read alike, the source gives them in different places.
# Columns and labels:
# [1] = Pharmacokinetics across species; assay type: in vivo; details: rat, monkey, dog, plasma
# [2] = Human PK, multiple ascending dose Study M13-845 Substudy 1; assay type: in vivo; details: for AUC: human, in vivo, oral
# [3] = 12 mg BID, Day 14, mean (% CV), Western subjects, listed as Comp. 1
# [4] = 24 mg BID, Day 14, mean (% CV), Western subjects, listed as Comp. 1
smiles,measurement,setting,value
"CC[C@@H]1CN(C(=O)NCC(F)(F)F)C[C@@H]1c1cnc2cnc3[nH]ccc3n12 [Compound 1, (3S,4R)-3-ethyl-4-(3H-imidazo[1,2-a]pyrrolo[2,3-e]pyrazin-8-yl)-N-(2,2,2-trifluoroethyl)pyrrolidine-1-carboxamide]",Vd,"[1]; iv, all species, read-out: Vss",1.6 to 2.7 L/kg
same,half-life,"[1]; oral, read-out: plasma elimination half-life after oral dosing",3 to 5 h
same,AUC12/dose,"[2]; 3 mg BID, Day 1",25.1 ng·h/mL/mg
same,C12/dose,"[2]; 3 mg BID, Day 1",0.32 ng/mL/mg
same,Cmax/dose,"[2]; 3 mg BID, Day 1",6.33 ng/mL/mg
same,AUC12/dose,"[2]; 3 mg BID, Day 14",26.1 ng·h/mL/mg
same,Cmax/dose,"[2]; 3 mg BID, Day 14",6.16 ng/mL/mg
same,"Fe %, unchanged drug recovered in urine","[2]; 3 mg BID, Day 14",18.8%
same,AUC12/dose,"[2]; 6 mg BID, Day 1",22.3 ng·h/mL/mg
same,C12/dose,"[2]; 6 mg BID, Day 1",0.30 ng/mL/mg
same,Cmax/dose,"[2]; 6 mg BID, Day 1",4.91 ng/mL/mg
same,AUC12/dose,"[2]; 6 mg BID, Day 14",23.1 ng·h/mL/mg
same,Cmax/dose,"[2]; 6 mg BID, Day 14",4.80 ng/mL/mg
same,"Fe %, unchanged drug recovered in urine","[2]; 6 mg BID, Day 14",18.7%
same,AUC12/dose,"[2]; 12 mg BID, Day 1",22.5 ng·h/mL/mg
same,C12/dose,"[2]; 12 mg BID, Day 1",0.33 ng/mL/mg
same,Cmax/dose,"[2]; 12 mg BID, Day 1",4.84 ng/mL/mg
same,"Fe %, unchanged drug recovered in urine","[2]; 12 mg BID, Day 14",21.4%
same,AUC12/dose,[2]; [3],22.6 ng·h/mL/mg
same,Cmax/dose,[2]; [3],4.80 ng/mL/mg
same,AUC12/dose,"[2]; 24 mg BID, Day 1",22.5 ng·h/mL/mg
same,C12/dose,"[2]; 24 mg BID, Day 1",0.32 ng/mL/mg
same,Cmax/dose,"[2]; 24 mg BID, Day 1",5.25 ng/mL/mg
same,"Fe %, unchanged drug recovered in urine","[2]; 24 mg BID, Day 14",18.7%
same,AUC12/dose,[2]; [4],22.0 ng·h/mL/mg
same,Cmax/dose,[2]; [4],4.95 ng/mL/mg
same,AUC,"[2]; 3 mg, 3 mg BID, Day 1, mean, read-out: AUC12",75.3 ng·h/mL
same,AUC,"[2]; 3 mg, 3 mg BID, Day 14, mean, read-out: AUC12",78.3 ng·h/mL
same,AUC,"[2]; 6 mg, 6 mg BID, Day 14, mean, read-out: AUC12",138 ng·h/mL
same,AUC,"[2]; 6 mg, AUC12, 6 mg BID, Day 1, mean, heading: AUC12",134 ng·h/mL
same,AUC,"[2]; 12 mg, 12 mg BID, Day 1, mean, read-out: AUC12",270 ng·h/mL
same,AUC,"[2]; 12 mg, 12 mg BID, Day 14, mean, read-out: AUC12",271 ng·h/mL
same,AUC,"[2]; 24 mg, 24 mg BID, Day 1, mean, read-out: AUC12",540 ng·h/mL
same,AUC,"[2]; 24 mg, 24 mg BID, Day 14, mean, read-out: AUC12",529 ng·h/mL

# From patent US20150118229A1, “JAK1 SELECTIVE INHIBITOR AND USES THEREOF” (ABBVIE INC., priority 2013, published 2015)
